Reference: US11478460B2, “Diaryl substituted 6,5-fused ring compounds as C5aR inhibitors” (CHEMOCENTRYX, INC., priority 2017, dated 2022)

Target: C5aR (Homo sapiens (Human), UniProt P21730)
Assay: Chemotaxis assay using U937 cells (C5aR mediated migration)
Type: cell-based
Conditions: read-out: Mig IC50
Procedure, shortened: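 U937 monocytic cells, pretreated overnight with 0.5 mM cyclic AMP, placed at 100,000 cells in the upper well above 5 μm polycarbonate filters. Lower well held 0.03 nM C5a plus compound in HBSS/1% FBS; after 1.5 h at 37° C migrated cells counted directly or by CyQuant, giving IC50.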

Sequence of C5aR (P21730 whole entry): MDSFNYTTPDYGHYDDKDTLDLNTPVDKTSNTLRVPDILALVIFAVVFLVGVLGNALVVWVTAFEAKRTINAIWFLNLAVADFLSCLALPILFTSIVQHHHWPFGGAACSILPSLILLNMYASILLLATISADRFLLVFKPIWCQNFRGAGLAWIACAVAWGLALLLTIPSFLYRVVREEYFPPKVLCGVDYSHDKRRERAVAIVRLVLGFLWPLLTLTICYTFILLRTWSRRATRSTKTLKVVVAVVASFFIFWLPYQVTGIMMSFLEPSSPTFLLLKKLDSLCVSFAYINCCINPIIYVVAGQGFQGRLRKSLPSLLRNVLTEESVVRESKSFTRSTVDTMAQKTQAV

| Structure (SMILES) | IC50 [nM] |
| --- | --- |
| Cc1cccc(OCC(C)C)c1-n1nc2c(c1-c1ccc(NC(N)=O)cc1)CN(Cc1ccc(C(F)(F)F)cc1F)CC2 [Example 1.329] | ≤ 5 |
| CCc1cccc(CC)c1-n1nc2c(c1-c1ccc(NC(N)=O)cc1)CN(C(C)c1ccccc1C(F)(F)F)CC2 (stereo not drawn) [Example 1.295] | 5 to 50 |
| Cc1ccc(C(C)(C)C)cc1N1CCc2nn(-c3c(C)cccc3CC(C)C)c(-c3ccc(N(C)C(N)=O)cc3)c2C1 [Example 1.400] | > 500 |
| Cc1cccc(OCC(C)C)c1-n1nc2c(c1-c1ccc(NC(N)=O)cc1)CN(c1cc(C(C)(C)C)ccc1Cl)CC2 [Example 1.422] | 5 to 50 |
| COc1cccc(C)c1-n1nc2c(c1-c1ccc(NC(N)=O)cc1)CN(c1ccccc1C(C)(C)C)CC2 [Example 1.456] | 5 to 50 |
| Cc1cccc(OCC(C)C)c1-n1nc2c(c1-c1ccc(NC(N)=O)cc1)CN(C(=O)c1ccccc1)CC2 [Example 1.431] | 50 to 500 |
| Cc1cccc(OCC(C)C)c1-n1nc2c(c1-c1ccc(C(N)=O)cc1)CN(c1ccccc1C(C)(C)C)CC2 [Example 1.453] | 5 to 50 |
| CCc1cccc(CC)c1-n1nc2c(c1-c1ccc(NC(N)=O)cc1)CN(CC(C)(C)C)CC2 [Example 1.282] | 5 to 50 |
| Cc1ccc(C(C)(C)C)cc1N1CCc2nn(-c3c(C)cccc3C)c(-c3ccc(NC(N)=O)cc3)c2C1 [Example 1.442] | 5 to 50 |
| Cc1cccc(OCC(C)C)c1-n1nc2c(c1-c1ccc(NC(N)=O)c(F)c1)CN(C(C)C1CCCCC1)CC2 (stereo not drawn) [Example 1.232] | ≤ 5 |
| Cc1ccc(F)cc1N1CCc2nn(-c3c(C)cccc3OCC(C)C)c(-c3ccc(NC(N)=O)cc3)c2C1 [Example 1.423] | 5 to 50 |
| Cc1cccc(OCC(C)C)c1-n1nc2c(c1-c1ccc(NC(N)=O)cc1)CN(C1CCCC1C)CC2 (stereo not drawn) [Example 1.397] | 50 to 500 |
| Cc1cccc(C)c1-n1nc2c(c1-c1ccc(CO)cc1)CN(c1ccccc1C(C)C)CC2 [Example 1.467] | 50 to 500 |
| Cc1ccc(C(C)(C)C)cc1N1CCc2nn(-c3c(C)cccc3C)c(-c3ccc(OC(C)C)cc3)c2C1 [Example 1.446] | > 500 |
| Cc1cccc(OCC(C)C)c1-n1nc2c(c1-c1ccc(NC(N)=O)c(F)c1)CN(Cc1ccc(C(F)(F)F)cc1C(F)(F)F)CC2 [Example 1.277] | ≤ 5 |
| Cc1ccc(C(C)(C)C)cc1N1CCc2nn(-c3c(C)cccc3OCC(C)C)c(-c3ccc(N)cc3)c2C1 [Example 1.458] | 5 to 50 |
| Cc1ccc(C(F)(F)F)cc1N1CCc2nn(-c3c(C)cccc3OCC(C)C)c(-c3ccc(NC(N)=O)cc3)c2C1 [Example 1.418] | 5 to 50 |
| CCc1cccc(CC)c1-n1nc2c(c1-c1cc(F)c(NC(N)=O)cc1F)CN(C(C)c1ccccc1C(F)(F)F)CC2 (stereo not drawn) [Example 1.208] | ≤ 5 |
| Cc1cccc(F)c1-n1nc2c(c1-c1ccc(NC(N)=O)cc1)CN(c1ccccc1C(C)C)CC2 [Example 1.461] | 50 to 500 |
| Cc1cccc(OCC(C)C)c1-n1nc2c(c1-c1ccc(NC(N)=O)cc1)CN(Cc1c(F)cc(F)cc1F)CC2 [Example 1.307] | 5 to 50 |

Other lines, results leading:

| IC50 [nM] | Structure (SMILES) |
| --- | --- |
| 50 to 500 | Cc1cccc(C)c1-n1nc2c(c1-c1cc(F)c(NC(=O)CO)cc1F)CN(c1ncc(Cl)cc1Cl)CC2 [Example 1.125] |
| ≤ 5 | CCc1cccc(CC)c1-n1nc2c(c1-c1cc(F)c(NC(N)=O)cc1F)CN(C(C)(C)c1ccccc1F)CC2 [Example 1.186] |
| ≤ 5 | CCc1cccc(CC)c1-n1nc2c(c1-c1cc(F)c(NC(N)=O)cc1F)CN(Cc1ccc(C)cc1C)CC2 [Example 1.063] |
| ≤ 5 | CCc1cccc(CC)c1-n1nc2c(c1-c1cc(F)c(NC(N)=O)cc1F)CN(C(C)(C)c1ccccc1OC)CC2 [Example 1.149] |
| ≤ 5 | Cc1cc(NC(N)=O)c(F)cc1-c1c2c(nn1-c1c(C)cccc1C)CCN(c1ccc(Cl)cc1Cl)C2 [Example 1.118] |
| ≤ 5 | Cc1cccc(OCC(C)C)c1-n1nc2c(c1-c1ccc(NC(N)=O)c(F)c1)CN(c1ncc(C(C)C)cc1F)CC2 [Example 1.218] |
| ≤ 5 | CCc1cccc(CC)c1-n1nc2c(c1-c1cc(F)c(NC(N)=O)cc1F)CN(Cc1cc(F)ccc1C(F)(F)F)CC2 [Example 1.028] |
| 5 to 50 | Cc1cccc(OCC(C)C)c1-n1nc2c(c1-c1ccc(NC(N)=O)c(F)c1)CN(c1nccn3ccnc13)CC2 [Example 1.245] |
| ≤ 5 | Cc1cccc(C)c1-n1nc2c(c1-c1cc(F)c(NC(N)=O)cc1F)CN(c1ccc(Cl)cc1F)CC2 [Example 1.107] |
| ≤ 5 | CCc1cccc(CC)c1-n1nc2c(c1-c1cc(F)c(NC(N)=O)cc1F)CN(Cc1cc(OC)ccc1C(F)(F)F)CC2 [Example 1.045] |
| 5 to 50 | Cc1cccc(OCC(C)C)c1-n1nc2c(c1-c1ccc(N)c(Cl)c1)CN(c1ncc(C(F)(F)F)cc1F)CC2 [Example 1.279] |
| ≤ 5 | CCc1cccc(CC)c1-n1nc2c(c1-c1cc(F)c(NC(N)=O)cc1F)CN(c1ncc(Cl)cc1Cl)[C@@H](C)C2 [Example 1.013] |
| ≤ 5 | Cc1cnc(N2CCc3nn(-c4c(C)cccc4OCC(C)C)c(-c4ccc(NC(N)=O)cc4)c3C2)c(C(F)(F)F)c1 [Example 1.296] |
| 5 to 50 | CCc1cccc(CC)c1-n1nc2c(c1-c1cc(F)c(NC(N)=O)cc1F)CN(C(CO)c1ccccc1)CC2 (stereo not drawn) [Example 1.079] |
| ≤ 5 | CCc1cccc(CC)c1-n1nc2c(c1-c1cc(F)c(NC(N)=O)cc1F)CN(Cc1ccc(OC)cc1C(F)(F)F)CC2 [Example 1.053] |
| ≤ 5 | COc1cccc(C)c1-n1nc2c(c1-c1cc(F)c(NC(N)=O)cc1F)CN(c1ncc(Cl)cc1Cl)CC2 [Example 1.184] |
| ≤ 5 | COc1cc(NC(N)=O)c(F)cc1-c1c2c(nn1-c1c(C)cccc1OCC(C)C)CCN(c1ncc(C(C)C)cc1F)C2 [Example 1.130] |
| 5 to 50 | Cc1cccc(OCC(C)C)c1-n1nc2c(c1-c1ccc(NC(N)=O)cc1)CN(c1nc(C(F)(F)F)ccc1F)CC2 [Example 1.386] |
| 5 to 50 | CCc1cccc(CC)c1-n1nc2c(c1-c1cc(F)c(NC(N)=O)cc1F)CN(Cc1cnc(C)cc1C)CC2 [Example 1.026] |
| ≤ 5 | Cc1cnc(N2CCc3nn(-c4c(C)cccc4OCC(C)C)c(-c4ccc(NC(N)=O)c(F)c4)c3C2)c(Cl)c1 [Example 1.213] |
| ≤ 5 | CCc1cccc(CC)c1-n1nc2c(c1-c1cc(F)c(NC(N)=O)cc1F)CN(Cc1ccc(C(F)(F)F)cc1OC)CC2 [Example 1.058] |
| ≤ 5 | Cc1cccc(C)c1-n1nc2c(c1-c1cc(F)c(NC(N)=O)cc1F)CN(c1ncc(C(F)(F)F)cc1Cl)CC2 [Example 1.091] |
| ≤ 5 | Cc1cccc(OCC(C)C)c1-n1nc2c(c1-c1cc(F)c(NC(N)=O)cc1F)CN(c1ccnc(C(C)C)n1)CC2 [Example 1.139] |
| 5 to 50 | COc1cccc(C)c1-n1nc2c(c1-c1ccc(NC(N)=O)c(C)c1)CN(c1cc(C(C)(C)C)ccc1C)CC2 [Example 1.409] |
| ≤ 5 | Cc1cnc(N2CCc3nn(-c4c(C)cccc4OCC(C)C)c(-c4cc(F)c(NC(N)=O)cc4F)c3C2)nc1 [Example 1.158] |
| ≤ 5 | Cc1cc(Cl)cnc1N1CCc2nn(-c3c(C)cccc3OCC(C)C)c(-c3cc(F)c(NC(N)=O)cc3F)c2C1 [Example 1.168] |
| ≤ 5 | CCc1cccc(CC)c1-n1nc2c(c1-c1cc(F)c(NC(N)=O)cc1F)CN(Cc1ccccc1C(F)(F)F)CC2 [Example 1.067] |
| ≤ 5 | CCc1cccc(CC)c1-n1nc2c(c1-c1cc(F)c(NC(N)=O)cc1F)CN(c1ncc(Cl)cc1Cl)[C@H](C)C2 [Example 1.018] |
